{"source": "paper PMC6475383", "about": "(Proceedings of the National Academy of Sciences of the …, 2019)", "key": {"[1]": {"test_system": "classical complement pathway", "assay": "Wieslab classical pathway assay in human serum", "format": "biochemical", "settings": "up to 100 µM"}, "[2]": {"test_system": "lectin complement pathway", "assay": "Wieslab lectin pathway assay in human serum", "format": "biochemical", "settings": "up to 100 µM"}, "[3]": {"test_system": "receptors, ion channels, kinases, and proteases", "assay": "Broad assay panel", "settings": "up to 10 µM"}, "AP activation in plasma": {"test_system": "AP activation in plasma", "assay": "LPS-induced AP activation in mice", "format": "in vivo, C57BL/6J mice", "settings": "30 mg/kg oral, 3.5 h after i.p. LPS"}, "[4]": {"test_system": "KRN/I-Ag7 serum transfer-induced arthritis", "assay": "KRN arthritis model", "format": "in vivo, C57BL/6 mice"}, "[5]": {"test_system": "passive Heymann nephritis", "assay": "Passive Heymann nephritis", "format": "in vivo, Sprague-Dawley rats", "settings": "rats"}, "[6]": {"test_system": "C3 convertase activity in serum of C3G patients", "assay": "Inhibition of C3 cleavage in C3G patient serum", "format": "biochemical", "settings": "patient serum mixed with normal human serum, Mg2+-EGTA"}, "sheep erythrocytes": {"test_system": "sheep erythrocytes", "assay": "C3G patient serum-induced hemolysis of sheep erythrocytes", "format": "cell-based", "settings": "0.15 µM, 20% patient serum, EGTA"}, "PNH erythrocytes [7]": {"test_system": "PNH erythrocytes", "assay": "C3-opsonization of PNH erythrocytes", "format": "cell-based, human", "settings": "acidified serum, 1 µM, flow cytometry"}, "PNH erythrocytes [8]": {"test_system": "PNH erythrocytes", "assay": "Ex vivo hemolysis of PNH erythrocytes"}, "[9]": {"settings": "prophylactic and therapeutic dosing, end of study"}}, "data": [{"smiles": "CCO[C@H]1CCN(Cc2c(OC)cc(C)c3[nH]ccc23)[C@H](c2ccc(C(=O)O)cc2)C1", "note": "[LNP023]", "values": [{"measurement": "inhibition of classical complement pathway activation", "setting": "[1]", "result": "no inhibition"}, {"measurement": "inhibition of lectin complement pathway activation", "setting": "[2]", "result": "no inhibition"}, {"measurement": "effects in a broad assay panel of receptors, ion channels, kinases, and proteases", "setting": "[3]", "result": "no significant effects"}, {"measurement": "complement activation in plasma (C3d/iC3b) after LPS", "setting": "AP activation in plasma", "result": "effectively blocked complement activation"}, {"measurement": "disease protection", "setting": "[4]; mice, 60 mg/kg b.i.d. oral", "result": "Full disease protection"}, {"measurement": "disease protection", "setting": "[4]; mice, 180 mg/kg b.i.d. oral", "result": "Full disease protection"}, {"measurement": "overall clinical score", "setting": "[4]; mice, 20, 60, and 180 mg/kg b.i.d. oral", "result": "highly efficacious"}, {"measurement": "complement activation in the joints (Ba, C3d, C5a)", "setting": "[4]; mice, all doses (20, 60, 180 mg/kg b.i.d.)", "result": "significantly inhibited complement activation"}, {"measurement": "joint histology: inflammatory cell infiltration, bone erosion, proteoglycan loss", "setting": "[4]; mice, all treated animals, after 6 d of treatment", "result": "strongly blocked"}, {"measurement": "glomerular C3 deposition", "setting": "[5]; after compound treatment", "result": "near-complete inhibition of complement activation"}, {"measurement": "glomerulopathy", "setting": "[5]; [9]", "result": "greatly attenuate"}, {"measurement": "overall histopathology score", "setting": "[5]; [9]", "result": "significantly improve"}, {"measurement": "tubular degeneration", "setting": "[5]; [9]", "result": "prevent tubular degeneration"}, {"measurement": "disease progression after onset of proteinuria", "setting": "[5]; therapeutic dosing from day 6", "result": "immediately halted further disease progression"}, {"measurement": "C3 cleavage in C3G patient sera", "setting": "[6]", "result": "blocked abnormal C3 cleavage"}, {"measurement": "C3G serum-induced hemolysis of sheep erythrocytes", "setting": "sheep erythrocytes", "result": "potently blocked hemolysis"}, {"measurement": "C3 deposition on the surface of CD59-negative erythrocytes", "setting": "PNH erythrocytes [7]", "result": "able to block C3 deposition"}, {"measurement": "IC50", "setting": "PNH erythrocytes [8]; Homo sapiens, Erythrocyte, 24 h, read-out: IC50 lysis of PNH erythrocytes", "result": 400, "unit": "nM"}, {"measurement": "extent of inhibition of hemolysis of PNH erythrocytes", "setting": "PNH erythrocytes [8]; dose-response, acidified NHS, FACS", "result": "full inhibition"}]}]}
